Measurements as given in EP4667458A1 (Kanaph Therapeutics Inc., priority 2023, dated 2024).
pIC50: −log10 of the molar value. Read-outs that look alike come from different tables or passages of the source.

Assays:
[1] = test system: lung cancer cell line NCI-H358 having the KRAS G12C variant; experiment: Cell viability (Cell Titer-Glo) on combined administration, NCI-H358; format: cell-based
Text: When the example compound was used in combination with an anticancer agent, the effect on the growth ability of cancer cells expressing KRAS variant or EGFR variant was confirmed. In order to confirm the effect of the example compound in combination with a MEK inhibitor or a KRAS G12C inhibitor in the cell line having the KRAS variant, the cell growth inhibitory effect by the treatment of the example compound in combination with a MEK inhibitor or a KRAS G12C inhibitor was confirmed in the gastric cancer cell line SNU-1 and the pancreatic cancer cell line KP4 having the KRAS G12D variant, the lung cancer cell line NCI-H358 and the pancreatic cancer cell line MIA PaCa-2 having the KRAS G12C variant, the colorectal cancer cell line SW480 having the KRAS G12V variant, the lung cancer cell line A549 having the KRAS G12S variant, the colorectal cancer cell line LoVo having the KRAS G13D variant. In addition, in order to confirm the effect of the example compound in combination with an EGFR inhibitor in the cell line having the EGFR variant, the cell growth inhibitory effect by the treatment of the example compound in combination with an EGFR inhibitor was confirmed in the lung cancer cell line H1975 having the EGFR L858R/T790M variant and the lung cancer cell line HCC827 having the EGFR Del19 variant. […]

[2] = molecular target: T1, KRAS^G12C::SOS1 (Homo sapiens, UniProt Q07889); experiment: KRAS G12C::SOS1 protein-protein interaction (PPI) inhibition assay (HTRF binding kit)
T1 sequence (Q07889 1-1333): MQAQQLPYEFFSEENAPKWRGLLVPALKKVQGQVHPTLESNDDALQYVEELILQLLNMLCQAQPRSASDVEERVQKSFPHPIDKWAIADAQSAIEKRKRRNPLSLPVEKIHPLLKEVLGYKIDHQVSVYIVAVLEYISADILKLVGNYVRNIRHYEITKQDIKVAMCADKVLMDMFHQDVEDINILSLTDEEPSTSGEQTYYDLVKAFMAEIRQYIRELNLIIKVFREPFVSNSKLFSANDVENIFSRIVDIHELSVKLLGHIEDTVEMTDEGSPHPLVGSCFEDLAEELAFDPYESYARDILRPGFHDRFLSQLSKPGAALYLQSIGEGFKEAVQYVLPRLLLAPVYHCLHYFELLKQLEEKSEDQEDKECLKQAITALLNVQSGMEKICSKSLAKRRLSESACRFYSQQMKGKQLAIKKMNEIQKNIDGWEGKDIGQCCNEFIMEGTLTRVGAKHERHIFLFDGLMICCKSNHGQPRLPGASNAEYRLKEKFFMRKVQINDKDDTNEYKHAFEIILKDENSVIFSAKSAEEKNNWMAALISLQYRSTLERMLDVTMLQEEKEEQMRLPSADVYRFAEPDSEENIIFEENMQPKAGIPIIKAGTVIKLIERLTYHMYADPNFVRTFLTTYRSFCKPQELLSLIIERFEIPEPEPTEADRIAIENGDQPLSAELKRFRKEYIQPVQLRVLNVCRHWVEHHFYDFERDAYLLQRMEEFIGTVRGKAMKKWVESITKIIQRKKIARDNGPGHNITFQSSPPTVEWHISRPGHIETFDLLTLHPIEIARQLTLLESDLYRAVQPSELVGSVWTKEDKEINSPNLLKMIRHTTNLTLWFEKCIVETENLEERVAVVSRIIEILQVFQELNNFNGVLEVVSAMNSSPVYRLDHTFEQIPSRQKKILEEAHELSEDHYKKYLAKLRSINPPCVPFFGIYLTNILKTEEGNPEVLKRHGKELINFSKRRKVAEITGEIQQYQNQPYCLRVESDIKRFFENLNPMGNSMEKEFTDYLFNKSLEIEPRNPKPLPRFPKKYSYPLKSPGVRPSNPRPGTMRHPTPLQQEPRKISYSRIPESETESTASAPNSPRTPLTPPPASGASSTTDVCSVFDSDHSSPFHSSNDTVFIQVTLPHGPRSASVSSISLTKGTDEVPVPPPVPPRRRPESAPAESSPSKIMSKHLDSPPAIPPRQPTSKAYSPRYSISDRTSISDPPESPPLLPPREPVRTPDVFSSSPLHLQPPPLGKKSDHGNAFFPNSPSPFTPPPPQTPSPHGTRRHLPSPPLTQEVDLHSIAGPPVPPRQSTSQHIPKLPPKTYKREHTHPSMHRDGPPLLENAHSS

[3] = molecular target: T2, SOS1 (Homo sapiens, UniProt Q07889); experiment: SOS-catalyzed nucleotide exchange assay (HTRF, SOS1-mediated GTP loading of KRAS G12D); format: biochemical; conditions: GST-KRAS G12D, HIS-SOS1cat, EDA-GTP-DY-647P1; compound 128 pM to 10 µM; read-out: SOS-catalyzed nucleotide exchange assay (IC50 range, Grade)
T2 construct: adding equal amounts of HIS-SOS1cat (160 nM; Cytoskeleton, US); His; purchased Cytoskeleton, US
T2 sequence (Q07889 564-1049 limits assumed): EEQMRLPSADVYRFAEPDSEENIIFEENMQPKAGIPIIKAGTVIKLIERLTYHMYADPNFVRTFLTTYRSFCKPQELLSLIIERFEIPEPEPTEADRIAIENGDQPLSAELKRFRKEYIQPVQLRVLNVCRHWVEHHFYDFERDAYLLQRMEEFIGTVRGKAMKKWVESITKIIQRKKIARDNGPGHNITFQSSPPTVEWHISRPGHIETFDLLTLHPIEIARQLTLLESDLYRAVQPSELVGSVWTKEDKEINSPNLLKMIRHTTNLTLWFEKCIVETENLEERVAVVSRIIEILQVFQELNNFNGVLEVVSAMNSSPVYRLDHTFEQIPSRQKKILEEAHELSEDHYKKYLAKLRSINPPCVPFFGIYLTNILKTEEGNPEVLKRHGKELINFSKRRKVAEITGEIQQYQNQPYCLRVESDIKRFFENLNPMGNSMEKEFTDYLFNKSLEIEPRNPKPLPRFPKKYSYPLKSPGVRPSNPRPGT
Procedure, shortened: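 SOS1cat (HIS-tagged) preincubated 10 min at room temperature with compound (128 pM-10 µM), then GST-KRAS G12D with anti-GST terbium added; GTP loading tracked as HTRF with a DY-647P1 GTP analogue after 30 min, buffer HEPES pH 7.4. GEF-free wells for normalization; IC50 derived.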

Row | Molecule | pIC50 [2] | pIC50 [3] | pIC50 ([2]; read-out: KRAS ^G12C::SOS1 PPI assay (IC50 range, Grade), maximum concentration 3 µM, 8 concentrations, three replicates) | cell viability ([1]; INK-128 (3.2-100 nM) in combination with Example 295 (0-300 nM) compared to INK-128 alone, 72 h, FIG. 1) | cell viability ([1]; sotorasib (0.14-10 nM) in combination with Example 295 (0-300 nM) compared to sotorasib alone, FIG. 2)
1 | CNCc1ccc(Cl)cc1-c1ccc([C@@H](C)NC(=O)c2ccc(=O)n(-c3ccccc3F)n2)s1 [Example 295, N-[(1R)-1-[5-[5-chloro-2-(methylaminomethyl)phenyl]-2-thienyl]ethyl]-1-(2-fluorophenyl)-6-oxo-pyridazine-3-carboxamide] | > 6.00 |  |  | decreased | decreased
2 | Cc1cc(C(=O)N[C@H](C)c2cc(N)cc(C(F)F)c2)nn(-c2cncc(-c3cnnn3C)c2)c1=O [Example B07, N-[(1R)-1-[3-amino-5-(difluoromethyl)phenyl]ethyl]-5-methyl-1-[5-(3-methyltriazol-4-yl)-3-pyridyl]-6-oxo-pyridizine-3-carboxamide] | > 6.00 | > 6.00 |  |  | 
3 | Cc1cc(C(=O)N[C@H](C)c2cccc(C(F)(F)F)c2F)cn(-c2cncc(-c3cnnn3C)c2)c1=O [Example B10, (R)-N-(1-(2-fluoro-3-(trifluoromethyl)phenyl)ethyl)-3-methyl-5'-(1-methyl-1H-1,2,3-triazol-5-yl)-2-oxo-2H-[1,3'-bipyridine]-5-carboxamide] | > 6.00 | > 6.00 |  |  | 
4 | Cc1c([C@@H](C)NC(=O)c2ccc(=O)n(-c3cncc(-c4ccnn4C)c3)n2)cc(N)cc1C(F)(F)F [Example B05, N-[(1R)-1-[5-amino-2-methyl-3-(trifluoromethyl)phenyl]ethyl]-1-[5-(2-methylpyrazol-3-yl)-3-pyridyl]-6-oxo-pyridazine-3-carboxamide] | > 6.00 | > 6.00 |  |  | 

More lines, main results first:

Row | pIC50 [2] | pIC50 [3] | pIC50 ([2]; read-out: KRAS ^G12C::SOS1 PPI assay (IC50 range, Grade), maximum concentration 3 µM, 8 concentrations, three replicates) | Molecule | cell viability ([1]; INK-128 (3.2-100 nM) in combination with Example 295 (0-300 nM) compared to INK-128 alone, 72 h, FIG. 1) | cell viability ([1]; sotorasib (0.14-10 nM) in combination with Example 295 (0-300 nM) compared to sotorasib alone, FIG. 2)
5 | > 6.00 | 5.00 to 6.00 |  | C[C@@H](NC(=O)c1ccc(=O)n(-c2cccc3cc[nH]c23)n1)c1cc(N)cc(C(F)(F)F)c1 [Example 155, N-[(1R)-1-[3-amino-5-(trifluoromethyl)phenyl]ethyl]-1-(1H-indole-7-yl)-6-oxo-pyridazine-3-carboxamide] |  | 
6 | > 6.00 | 5.00 to 6.00 |  | C[C@@H](NC(=O)c1ccc(=O)n(-c2ccccc2F)n1)c1cccc(I)c1F [Example 144, N-[(1R)-1-(2-fluoro-3-iodo-phenyl)ethyl]-1-(2-fluorophenyl)-6-oxo-pyridazine-3-carboxamide] |  | 
7 |  | 5.00 to 6.00 | > 6.00 | N-[(1R)-1-[3-amino-5-(trifluoromethyl)phenyl]ethyl]-6-oxo-1-[4-(trifluoromethoxy)phenyl]pyridazine-3-carboxamide [Example 154] |  | 
